# Data published in ChEMBL document CHEMBL5543140 (J Med Chem, 2024).
# pEC50, pKi: −log10 of the molar value. The source made the active and inactive calls. The calls are words filed in the database; no cut-off is given here.
# How the values were obtained:
# Mus musculus [1] = test: Psychedelic effect in sc dosed C57BL/6J mouse assessed as induction of 5-HT2A receptor dependent head-twitch responses by visual observation measured within 10 mins; assay type: functional, organism-based; details: dose 0.1-3 mg/kg
# [2] = Ex vivo binding in C57BL/6J mouse brain frontal cortex assessed as specific binding [3H]Cimbi-36 at 1 mg/kg, sc measured after 360 mins by liquid scintillation counting analysis (reference value: 1092 +/- 53); assay type: functional; details: 6 h
# [3] = Metabolic stability in rat liver microsomes assessed as half life at 1 uM incubated for 120 mins in presence of NADPH; assay type: ADME, Microsome
# [4] = Tmax in Wistar rat brain at 1 mg/kg, iv measured upto 48 hrs; assay type: ADME, organism-based
# [5] = target: T1, 5-hydroxytryptamine receptor 2C (Homo sapiens, UniProt P28335); test: Displacement of [3H]LSD from human 5-HT2C receptor expressed in HEK293 cell membrane incubated for 90 mins by microbeta liquid scintillation counting method; assay type: cell membranes
# T1 sequence (P28335 whole entry): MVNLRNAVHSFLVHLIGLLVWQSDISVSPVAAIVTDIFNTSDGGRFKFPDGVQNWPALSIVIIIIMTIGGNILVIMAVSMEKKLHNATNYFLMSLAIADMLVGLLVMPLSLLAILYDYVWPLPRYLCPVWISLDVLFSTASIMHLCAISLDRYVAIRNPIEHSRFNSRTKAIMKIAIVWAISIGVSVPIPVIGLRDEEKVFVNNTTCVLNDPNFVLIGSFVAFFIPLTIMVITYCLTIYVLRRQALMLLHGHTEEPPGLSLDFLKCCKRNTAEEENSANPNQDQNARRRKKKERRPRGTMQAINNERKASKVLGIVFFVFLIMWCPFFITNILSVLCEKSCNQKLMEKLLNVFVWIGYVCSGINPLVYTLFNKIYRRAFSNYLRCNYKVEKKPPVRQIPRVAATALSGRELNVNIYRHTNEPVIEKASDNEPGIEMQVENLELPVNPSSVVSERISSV
# Hippocampus [6] = test: Induction of neuroplasticity in C57BL/6J mouse assessed as increase in EGR2 mRNA expression in brain hippocampus at 3 mg/kg, sc single dose by RT-PCR analysis; assay type: functional, organism-based
# [7] = Ex vivo binding in C57BL/6J mouse brain frontal cortex assessed as specific binding [3H]Cimbi-36 at 1 mg/kg, sc measured after 10 mins by liquid scintillation counting analysis (reference value: 1092 +/- 53); assay type: functional
# Homo sapiens = species on record: Homo sapiens; test: Selectivity ratio, ratio of Ki for human 5-HT2B receptor to human 5-HT2C receptor
# Mus musculus [8] = test: Induction of neuroplasticity in C57BL/6J mouse assessed as increase in Homer1 mRNA expression in brain frontal cortex at 0.3 mg/kg, sc single dose by RT-PCR analysis; assay type: functional, organism-based
# Hippocampus [9] = test: Induction of neuroplasticity in C57BL/6J mouse assessed as increase in c-Fos mRNA expression in brain hippocampus at 3 mg/kg, sc single dose by RT-PCR analysis; assay type: functional, organism-based
# [10] = Ex vivo binding in C57BL/6J mouse brain frontal cortex assessed as inhibition of [3H]Cimbi-36 binding at 1 mg/kg, sc measured after 360 mins by liquid scintillation counting analysis (reference value: 0%); assay type: functional; details: 6 h
# [11] = Brain to plasma ratio in Wistar rat at 5 mg/kg, po measured upto 48 hrs; assay type: ADME, organism-based; details: brain and plasma, read-out: BPR
# [12] = Half life in beagle dog at 2 mg/kg, po measured upto 24 hrs; assay type: ADME, organism-based, Canis lupus familiaris; details: in vivo
# Hippocampus [13] = test: Induction of neuroplasticity in C57BL/6J mouse assessed as increase in PSD-95 mRNA expression in brain hippocampus at 0.3 mg/kg, sc single dose by RT-PCR analysis; assay type: functional, organism-based
# Mus musculus [14] = test: Psychedelic effect in C57BL/6J mouse assessed as number of 5-HT2A receptor dependent head-twitch responses by visual observation at 3 mg/kg, sc in presence of ketanserin 1 mg/kg, sc measured after 24 hrs; assay type: functional
# [15] = MRTinf in beagle dog at 0.4 mg/kg, iv measured upto 24 hrs; assay type: ADME, organism-based, Canis lupus familiaris; details: in vivo
# [16] = Clearance in beagle dog at 0.4 mg/kg, iv measured upto 24 hrs; assay type: ADME, organism-based, Canis lupus familiaris; details: in vivo
# Mus musculus [17] = test: Psychedelic effect in C57BL/6J mouse assessed as development of tolerance/ tachyphylaxis at 3 mg/kg, sc measured on day 4 by head-twitch responses test; assay type: functional, organism-based; details: time 4.0 day
# [18] = Metabolic stability in rat liver S9 fractions assessed as half life; assay type: ADME, subcellular; details: liver S9 fraction
# Mus musculus [19] = test: Psychedelic effect in C57BL/6J mouse assessed as induction of 5-HT2A receptor dependent maximal head-twitch responses by visual observation at 1 to 3 mg/kg, sc at 40 mins post- administration measured upto 360 mins; assay type: functional, organism-based; details: dose 1-3 mg/kg
# [20] = AUClast in Wistar rat brain at 1 mg/kg, iv measured upto 48 hrs; assay type: ADME, organism-based
# [21] = target: T2, 5-hydroxytryptamine receptor 2A (Homo sapiens, UniProt P28223); test: Agonist activity at human 5-HT2A receptor expressed in HEK293 cells assessed as maximal IP2 production measured after 30 mins incubation by HTRF assay relative to control; assay type: functional, cell-based; details: filed as agonist
# T2 sequence (P28223 whole entry): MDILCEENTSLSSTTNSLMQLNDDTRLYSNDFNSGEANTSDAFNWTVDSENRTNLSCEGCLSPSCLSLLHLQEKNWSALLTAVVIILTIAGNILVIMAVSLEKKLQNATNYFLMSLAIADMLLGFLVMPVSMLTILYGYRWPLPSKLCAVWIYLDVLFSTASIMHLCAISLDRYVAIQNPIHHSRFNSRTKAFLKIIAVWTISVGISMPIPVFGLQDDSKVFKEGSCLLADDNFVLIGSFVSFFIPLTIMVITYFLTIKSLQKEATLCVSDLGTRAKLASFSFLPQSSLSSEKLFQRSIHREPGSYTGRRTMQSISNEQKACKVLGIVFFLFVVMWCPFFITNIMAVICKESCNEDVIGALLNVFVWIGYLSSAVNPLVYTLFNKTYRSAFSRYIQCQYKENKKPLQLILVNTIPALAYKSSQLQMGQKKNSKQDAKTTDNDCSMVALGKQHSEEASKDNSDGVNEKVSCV
# [22] = target: 5-hydroxytryptamine receptor 5A (Homo sapiens) (UniProt P47898); test: Binding affinity to human 5-HT5A receptor (unknown origin) at 10 uM by radioligand displacement assay
# Chain of 5-hydroxytryptamine receptor 5A (Homo sapiens) (P47898 whole entry): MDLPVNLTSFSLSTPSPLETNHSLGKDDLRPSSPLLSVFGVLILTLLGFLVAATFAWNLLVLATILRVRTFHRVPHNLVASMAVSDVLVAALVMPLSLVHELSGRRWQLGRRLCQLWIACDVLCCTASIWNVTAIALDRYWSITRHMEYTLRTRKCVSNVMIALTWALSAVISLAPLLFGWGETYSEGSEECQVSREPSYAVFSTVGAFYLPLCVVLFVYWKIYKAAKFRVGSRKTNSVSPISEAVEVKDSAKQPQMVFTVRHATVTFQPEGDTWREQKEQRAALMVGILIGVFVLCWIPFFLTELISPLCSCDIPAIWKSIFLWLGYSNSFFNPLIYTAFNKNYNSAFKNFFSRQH
# [23] = target: Alpha-2B adrenergic receptor (Homo sapiens, UniProt P18089); test: biochemical; assay type: cell-based, CHO-K1
# Chain of Alpha-2B adrenergic receptor (P18089 whole entry): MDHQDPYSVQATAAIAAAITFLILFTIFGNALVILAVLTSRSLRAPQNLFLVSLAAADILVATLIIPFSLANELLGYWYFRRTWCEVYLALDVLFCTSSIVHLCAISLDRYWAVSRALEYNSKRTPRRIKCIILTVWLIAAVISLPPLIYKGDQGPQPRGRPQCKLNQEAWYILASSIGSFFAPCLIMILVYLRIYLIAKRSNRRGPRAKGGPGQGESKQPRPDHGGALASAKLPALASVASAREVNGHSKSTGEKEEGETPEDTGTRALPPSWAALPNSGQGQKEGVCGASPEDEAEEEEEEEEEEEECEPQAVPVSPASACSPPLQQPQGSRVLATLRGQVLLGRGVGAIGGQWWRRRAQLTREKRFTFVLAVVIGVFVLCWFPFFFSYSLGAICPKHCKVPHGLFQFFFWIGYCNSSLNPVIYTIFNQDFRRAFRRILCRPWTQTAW
# [24] = Drug metabolism in rat hepatocytes assessed as formation of sulfoxide with N-acetylation/0-glucuronidations metabolites at 10 uM by HRAMS analysis; assay type: ADME, cell-based, Hepatocyte
# [25] = target: 5-hydroxytryptamine receptor 2C (Homo sapiens) (UniProt P28335); test: Agonist activity at human 5-HT2C receptor expressed in HEK293 cells assessed as maximal IP2 production measured after 30 mins incubation by HTRF assay relative to control; assay type: functional, cell-based; details: filed as agonist
# [26] = Cmax in beagle dog at 2 mg/kg, po measured upto 24 hrs; assay type: ADME, organism-based, Canis lupus familiaris; details: in vivo
# [27] = target: 5-hydroxytryptamine receptor 2B (Homo sapiens, UniProt P41595); test: Agonist activity at human 5-HT2B receptor expressed in CHO cells assessed as IP2 production measured after 30 mins incubation by HTRF assay; assay type: functional, cell-based
# Chain of 5-hydroxytryptamine receptor 2B (P41595 whole entry): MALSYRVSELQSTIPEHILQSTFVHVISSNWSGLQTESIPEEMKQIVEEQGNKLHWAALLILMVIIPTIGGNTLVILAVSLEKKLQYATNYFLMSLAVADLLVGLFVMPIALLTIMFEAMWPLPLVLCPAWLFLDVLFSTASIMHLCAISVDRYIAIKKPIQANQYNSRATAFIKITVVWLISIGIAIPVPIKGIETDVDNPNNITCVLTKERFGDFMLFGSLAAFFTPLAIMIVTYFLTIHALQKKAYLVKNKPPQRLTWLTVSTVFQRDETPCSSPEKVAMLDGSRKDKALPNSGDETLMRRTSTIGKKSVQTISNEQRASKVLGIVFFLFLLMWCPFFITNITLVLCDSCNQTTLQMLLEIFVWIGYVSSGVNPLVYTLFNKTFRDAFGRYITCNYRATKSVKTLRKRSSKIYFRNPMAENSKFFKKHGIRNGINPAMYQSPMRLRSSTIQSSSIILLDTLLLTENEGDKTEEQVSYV
# [28] = Cmax in mouse C57BL/6J brain at 3 mg/kg, sc measured after 2 hrs; assay type: ADME, organism-based
# [29] = AUCinf in Wistar rat plasma at 5 mg/kg, po measured upto 48 hrs; assay type: ADME, organism-based
# [30] = Tmax in male Sprague-Dawley rat plasma at 1 mg/kg, iv measured upto 8 hrs by LC-MS/MS analysis; assay type: ADME, organism-based
# [31] = target: T2, 5-hydroxytryptamine receptor 2A; test: Agonist activity at human 5-HT2A receptor expressed in HEK293 cells assessed as IP2 production measured after 30 mins incubation by HTRF assay; assay type: functional, cell-based; details: read-out: EC50
# [32] = AUCinf in male Sprague-Dawley rat plasma at 1 mg/kg, iv measured upto 8 hrs by LC-MS/MS analysis; assay type: ADME, organism-based
# [33] = Brain to plasma ratio in male Sprague-Dawley rat at 1 mg/kg, iv measured upto 8 hrs by LC-MS/MS analysis; assay type: ADME, organism-based; details: brain and plasma, read-out: BPR
structure (smiles),measurement,setting,value
COc1cc([Se]C(F)(F)F)c(OC)cc1CCN.Cl,Activity,Mus musculus [1],Dose-Dependent Effect
same,Activity,[2],820
same,half-life at 1 µM,[3],0.917 h
same,Tmax,[4],0.5 h
same,pKi,[5],7.02
same,Activity,Hippocampus [6],inactive
same,Activity,[7],993
same,Ratio Ki,Homo sapiens,12
same,Activity,Mus musculus [8],Active
same,Activity,Hippocampus [9],inactive
same,inhibition in vivo at 1 mg/kg,[10],25%
same,Kp at 48 h,[11],57.9
same,half-life,[12],6.78 h
same,Activity,Hippocampus [13],inactive
same,Activity,Mus musculus [14],0.17
same,MRT inf,[15],5.58 h
same,clearance,[16],15.8 mL/min/kg
same,Activity,Mus musculus [17],inactive
same,half-life,[18],1.27 h
same,Activity,Mus musculus [19],Active
same,AUC(0-t) at 48 h,[20],2910 ng·h/mL
same,Emax,[21],87%
same,Activity,[22],inactive
same,pKi,[23],5.98
same,Drug metabolism,[24],Metabolite_Detected
same,Emax,[25],91%
same,Cmax,[26],263 ng/mL
same,pEC50,[27],7.06
same,Cmax,[28],3160 ng/g
same,AUC(0-inf),[29],49.7 ng·h/mL
same,Tmax,[30],4.98 min
same,pEC50,[31],8.44
same,AUC(0-inf),[32],210 ng·h/mL
same,Kp at 8 h,[33],15.6
